Experiment [1] has as its target Plasminogen (Homo sapiens) (UniProt P00747). The experiment can be described thus: In vitro inhibitory potency against plasmin; no enzyme inhibition was observed at an inhibitor concentration of 200 uM.
In experiment [2] the target is Prothrombin (Homo sapiens) (UniProt P00734). As to the kind of experiment: In vitro inhibitory potency against human alpha-thrombin.
In experiment [3] the target is Urokinase-type plasminogen activator (Homo sapiens) (UniProt P00749). The experiment can be described thus: In vitro inhibitory potency against Urokinase-type plasminogen activator in human; no enzyme inhibition was observed at an inhibitor concentration of 200 uM.
Experiment [4] has as its target Serine protease 1 (Homo sapiens) (UniProt P07477). The experiment can be described thus: In vitro inhibitory potency against trypsin.
Experiment [5] deals with Tissue-type plasminogen activator (Homo sapiens) (UniProt P00750). As to the kind of experiment: In vitro inhibitory potency against n-tissue plasminogen activator in human; no enzyme inhibition was observed at an inhibitor concentration of 200 uM.
Tissue-type plasminogen activator (Homo sapiens), sequence (P00750 36-562 limits assumed): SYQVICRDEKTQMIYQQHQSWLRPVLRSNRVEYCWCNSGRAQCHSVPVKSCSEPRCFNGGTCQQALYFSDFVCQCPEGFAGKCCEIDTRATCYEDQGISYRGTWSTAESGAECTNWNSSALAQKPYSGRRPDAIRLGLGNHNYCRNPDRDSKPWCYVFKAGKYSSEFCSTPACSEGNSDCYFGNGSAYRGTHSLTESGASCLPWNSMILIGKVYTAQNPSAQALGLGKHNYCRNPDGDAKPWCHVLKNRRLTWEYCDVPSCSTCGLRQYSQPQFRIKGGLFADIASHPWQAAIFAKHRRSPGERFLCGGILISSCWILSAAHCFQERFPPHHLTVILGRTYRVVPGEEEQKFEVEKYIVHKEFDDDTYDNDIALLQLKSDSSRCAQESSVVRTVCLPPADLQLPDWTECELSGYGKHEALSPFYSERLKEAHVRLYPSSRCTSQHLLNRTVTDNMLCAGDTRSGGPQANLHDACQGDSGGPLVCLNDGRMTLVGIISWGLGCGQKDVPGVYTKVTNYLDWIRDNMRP
For experiment [6] the target is unchanged. As to the kind of experiment: In vitro inhibitory potency against n-tissue plasminogen activator in humans; no enzyme inhibition was observed at an inhibitor concentration of 200 uM.
The target in experiment [7] is Thrombin and urokinase-type plasminogen activator (Homo sapiens) (UniProt P00734+P00749). The experiment can be described thus: Selectivity ratio of thrombin Kass to Urokinase Kass. The experiment is classed as protein assay.
Experiment [8] can be described thus: Selectivity ratio of thrombin Kass to ntPA Kass.
Experiment [9] in a line: Selectivity ratio of thrombin Kass to plasmin Kass.
Experiment [10] has as its target Thrombin & trypsin (Homo sapiens) (UniProt P00734+P07477+P07478+P35030). As to the kind of experiment: Selectivity ratio of thrombin Kass to trypsin Kass. The class given is protein assay.
Experiment [11] deals with Plasminogen (Homo sapiens) (UniProt P00747). The experiment can be described thus: In vitro inhibitory potency against plasmin.
Plasminogen (Homo sapiens), sequence (P00747 97-580 limits assumed): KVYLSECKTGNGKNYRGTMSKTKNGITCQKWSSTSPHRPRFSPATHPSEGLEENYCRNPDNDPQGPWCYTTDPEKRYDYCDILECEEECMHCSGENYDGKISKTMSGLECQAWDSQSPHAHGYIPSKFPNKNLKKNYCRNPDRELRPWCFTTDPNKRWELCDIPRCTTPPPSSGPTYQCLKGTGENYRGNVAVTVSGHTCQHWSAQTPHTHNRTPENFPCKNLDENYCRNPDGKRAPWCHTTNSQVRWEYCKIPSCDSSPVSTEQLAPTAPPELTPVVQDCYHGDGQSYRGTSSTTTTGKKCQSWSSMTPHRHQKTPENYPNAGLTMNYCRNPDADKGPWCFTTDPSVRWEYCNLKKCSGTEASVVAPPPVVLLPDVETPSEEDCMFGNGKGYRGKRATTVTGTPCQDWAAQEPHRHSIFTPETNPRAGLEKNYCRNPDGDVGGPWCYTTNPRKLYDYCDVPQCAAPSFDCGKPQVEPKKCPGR
Plasminogen (Homo sapiens), sequence (P00747 581-810 limits assumed): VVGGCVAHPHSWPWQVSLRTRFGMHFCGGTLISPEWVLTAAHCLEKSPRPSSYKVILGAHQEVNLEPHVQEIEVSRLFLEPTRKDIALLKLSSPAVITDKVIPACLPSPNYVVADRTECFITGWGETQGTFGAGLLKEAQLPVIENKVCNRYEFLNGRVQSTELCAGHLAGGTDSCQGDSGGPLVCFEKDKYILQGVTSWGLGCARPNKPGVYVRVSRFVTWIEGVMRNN
Experiment [12] has as its target Urokinase-type plasminogen activator (Homo sapiens) (UniProt P00749). As to the kind of experiment: In vitro inhibitory potency against Urokinase-type plasminogen activator in human.
In experiment [13] the target is Tissue-type plasminogen activator (Homo sapiens) (UniProt P00750). As to the kind of experiment: In vitro inhibitory potency against n-tissue plasminogen activator in human.

SMILES strings stand for the structures. Bounds are passed on as bounds.

Serine protease 1 (Homo sapiens), sequence (P07477 whole entry): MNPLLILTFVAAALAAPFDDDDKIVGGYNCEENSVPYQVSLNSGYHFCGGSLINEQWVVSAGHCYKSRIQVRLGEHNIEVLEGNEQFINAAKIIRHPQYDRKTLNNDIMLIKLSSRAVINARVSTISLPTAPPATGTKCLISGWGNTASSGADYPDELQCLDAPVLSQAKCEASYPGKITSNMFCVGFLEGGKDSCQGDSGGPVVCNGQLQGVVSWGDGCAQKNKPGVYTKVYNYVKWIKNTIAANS

Turning to `NC(N)=NCCCCCCNC(=O)[C@@H]1CCCN1C(=O)[C@H](N)Cc1ccccc1`, the K ass in [1] is < 250 l M-1; in [2] it was 24000 l M-1; in experiment [3], < 250 l M-1; in experiment [4], 600 l M-1; in experiment [5], < 250 l M-1.

Regarding `NC(N)=NCCCCCNC(=O)[C@@H]1CCCN1C(=O)[C@H](N)Cc1ccccc1`, the K ass in experiment [1] was < 250 l M-1; in [2], 1.3e+06 l M-1; in experiment [3] it was < 250 l M-1; in experiment [4], 2700 l M-1; in experiment [6], < 250 l M-1. Further, the Ratio in experiment [7] is above 5200; in [8] it was above 5200; in experiment [9], above 5200; in [10] it was 480.

For `NC(N)=NCCC[C@@H](C=O)NC(=O)[C@@H]1CCCN1C(=O)[C@H](N)Cc1ccccc1`, the K ass is 1.4e+06 l M-1 in experiment [11]; 5.4e+08 l M-1 in [2]; 42000 l M-1 in experiment [12]; 1.1e+08 l M-1 in experiment [4]; 290000 l M-1 in experiment [13]. Further, the Ratio in [7] worked out at 13000; in experiment [8] it was 1800; in experiment [9], 390; in experiment [10] it was 5.1.

As for `CN[C@H](Cc1ccccc1)C(=O)N1CCC[C@H]1C(=O)N[C@H](C=O)CCCNC(=N)N`, the K ass was 1.8e+06 l M-1 in experiment [11]; 4.6e+08 l M-1 in experiment [2]; 32000 l M-1 in experiment [12]; 8.8e+07 l M-1 in [4]; 50000 l M-1 in [13]. Also, the Ratio in experiment [7] was 14000; in experiment [8], 8500; in experiment [9], 260; in [10] it was 5.2.

Turning to `NC(N)=NCCCNC(=O)[C@@H]1CCCN1C(=O)[C@H](N)Cc1ccccc1`, the K ass in experiment [1] is < 250 l M-1; in [2] it was 1.4e+06 l M-1; in [3] it was < 250 l M-1; in experiment [4], 14000 l M-1; in [13], 4100 l M-1. In addition, the Ratio is 5600 in [7], 341 in [8], above 5600 in experiment [9] and 100 in experiment [10].

Consider `NC(N)=NCCCCNC(=O)C1CCCN1C(=O)[C@H](N)Cc1ccccc1` (some centres undefined), for which the K ass in experiment [11] was 1200 l M-1; in [2], 5.5e+06 l M-1; in experiment [12] it was 180 l M-1; in [4], 170000 l M-1; in experiment [13] it was 6000 l M-1. The Ratio amounted to 31000 in experiment [7], 920 in [8], 4600 in experiment [9] and 33 in experiment [10].

In the case of `CN[C@H](Cc1ccccc1)C(=O)N1CCC[C@H]1C(=O)NCCCCN=C(N)N`, the K ass in [11] was 1100 l M-1; in [2], 2.4e+06 l M-1; in experiment [12] it was 180 l M-1; in experiment [4], 240000 l M-1; in [13] it was 1100 l M-1. For the same molecule, the Ratio came out at 13000 in [7], 2100 in experiment [8], 2100 in experiment [9] and 10 in experiment [10].

Values taken from ChEMBL document CHEMBL1128086, “Serine protease selectivity of the thrombin inhibitor D-Phe-Pro-Agmatine and its homologs” (Bioorg Med Chem Lett, 1995).
